Results reported in patent US10338078B2, “Method and apparatus for analyzing biomolecules using Raman spectroscopy” (Japan Science and Technology Agency, priority 2012, dated 2019).

Assays:
target protein = settings: cited from earlier work
cathepsin B = cathepsin B (Homo sapiens, UniProt P07858); assay: inhibition of cathepsin B enzyme activity; type: biochemical; settings: read-out: activity to inhibit cathepsin B, IC50
Description: Persons skilled in the art can appropriately select the position to introduce the Raman label as well as the type of Raman label to introduce by considering the structure of the compound. Moreover, persons skilled in the art having general techniques in the field of organic synthesis can appropriately synthesize a Raman-labeled compound as the low-molecular-weight compound according to the present invention. This is explained with a specific example as follows. Persons skilled in the art can synthesize an AOMK derivative (hereinafter, also referred to as RAT8-AOMK) by Raman-labeling acyloxymethyl ketone (AOMK) (an inhibitor of cathepsin B) with alkyne using general techniques in the field of organic synthesis. The RAT8-AOMK binds to cathepsin B, so as to inhibit its enzyme activity. The activity of RAT8-AOMK to inhibit cathepsin B is represented by IC50=0.3 μM. RAT8-AOMK can be synthesized and obtained by reacting N-Boc-AOMK (IC50=0.05 μM) with 4-nitrophenyl-4-ethynylbenzyl carbonate. Acyloxymethyl ketone (AOMK) is known as a cysteine protease inhibitor. The principle thereof is that a cysteine residue of the active center of an enzyme protein is modified by AOMK, and thus activity as protease is diminished (see FIG. 24).

Compound | activity when modified with a fluorophore (target protein) | IC50 (cathepsin B) [µM]
16F16 | loses its activity | 
C#Cc1ccc(COC(=O)N[C@@H](Cc2ccccc2)C(=O)NCC(=O)COC(=O)c2c(C)cccc2C)cc1 [RAT8-AOMK] |  | 0.3
